Results reported in US6265445A, “Antiarrhythmic compounds” (priority 1997, dated 2001).

Columns and labels:
[1] = system: Purkinje's fibres isolated from dog heart; assay: Intracellular microelectrode technique: action potential parameters, Purkinje's fibres; set-up: species or system mongrel dogs
Method: The method used is essentially in agreement with the method of Papp et al. [J. Cardiovascular Pharmacol. Ther. 1, 287-296 (1996)].
Right ventricular papillary muscle and Purkinje's fibres were prepared from the hearts of mongrel dogs (weighing 5 to 10 kg each). The preparations were placed into an organ bath (37° C.) containing modified Tyrode's nutrient medium. The preparations were excited by a basal frequency of 1 Hz. During the experiments, the frequency of stimulation was varied under broad limits by a computer-guided stimulator. The intracellular action potentials were registered by using glass capillary microelectrodes filled with 3 N potassium chloride solution (standard intracellular microelectrode techniques). The resting potential (RP), the amplitude of the action potential (APA) as well as the duration of the action potential (APD) were measured by using an IBM 386 compatible computer by means of an own-developed software. The compounds under test were directly added into the organ bath after dilution of the stock solutions according to the final concentrations desired. The effects of the compounds were observed after an incubation time of 30 to 40 minutes.

[2] = system: occlusion and reperfusion arrhythmias in anaesthetized dogs; assay: Occlusion and reperfusion arrhythmias following acute coronary ligation in anaesthetized dogs; assay type: in vivo, mongrel dogs
Method: The method used is essentially in agreement with the method of Vegh et al. [Basic Res. Cardiol. 82, 159-171 (1987)].
Mongrel dogs of both sexes weighing 10 to 20 kg each were anaesthetized by a mixture of chloralose (60 mg/kg) and urethane (200 mg/kg) and the animals were maintained on artificial respiration. After opening the chest, the ramus descendens anterior (LAD) branch of the left coronary artery of heart was prepared from the first main collateral branch and a loose loop from surgical thread was placed around it. During our experiments, the blood pressure of the animal was measured by using a cannule introduced to the left femoral artery and even the standard ECG parameters by using needle electrodes were continuously registered. The arrhythmias were induced by the occlusion for 25 minutes of a loop placed round the LAD. The survival after lethal arrhythmias and frequency of the arrhythmias were registered. The 28 dogs used in the experiments were divided into three groups. The compound of Example 15 was administered in a dose of 1 mg/kg to 8 animals; d-sotalol was given in a dose of 3 mg/kg to 10 animals by a single intravenous injection 10 minutes before compression of the coronary vessel. The control dogs (10 animals) received 5 ml of physiological saline solution in the same manner as the treated animals.
By using this method it can be stated whether the substance investigated would be effective for protection against arrhythmias following the ligation of the coronary artery.

[3] = system: arrhythmias following coronary artery occlusion in conscious rats; assay: Occlusion arrhythmia following acute coronary artery ligation in conscious rats; assay type: in vivo, male rats
Excerpt: The method used is essentially in agreement with the method of Lepran et al. [J. Pharmacol. Methods 9, pp. 219-230 (1983)].
During a previous operation, male rats weighing 340 to 360 g each were fitted with a loose surgical thread loop around the left descending coronary vessel, at about 2 mm from its origin. The ends of the loop thread were led out from the chest under the skin, then the surgical wound was closed. After complete recovery from this previous operation (7 to 8 days) acute myocardial ischaemia was induced by contracting the loose ligation in the conscious, freely moving animals. ECG was continuously registered by using bipolar chest electrodes before the ligation of the coronary artery and during the first 15 minutes of ischaemia. The ratio of survivals was determined and the developed arrhythmias were evaluated according to the Lambeth Convention [Walker et al.: Cardiovasc. Res. 22, 447-455 (1988)]. For evaluation of the arrhythmic episodes a score system was also employed by considering the severity of episodes on the basis of a score system from 0 to 6. Both d-sotalol and the substance of Example 15, respectively, were suspended in 1% methylcellulose and administered orally through a gastric sound at 1 hour before the compression of the coronary vessel. The control animals received a treatment with the same volume, i.e. 5 ml/kg of vehicle.

[4] = p.o. 25 mg/kg, first 15 minutes

Cc1cccc(C)c1OCC(C)N(C)CCc1ccc(NS(C)(=O)=O)cc1.Cl (stereo not shown) [Example 15, N-[4-[2-[N-Methyl-N-[2-(2,6-dimethylphenoxy)-1-methylethyl]amino]ethyl]phenyl]methanesulfonamide hydrochloride]
effect on APD on Purkinje's fibres (in words) ([1]; 2 μM and 5 μM): abbreviated APD on Purkinje's fibres of the dog | APA (amplitude of the action potential) ([1]; 2 μM, N 3): 112.7 ± 3.9 mV | APD50 (time of 50% repolarization) ([1]; 2 μM, N 3): 180.7 ± 14.8 ms | APD90 (time of 90% repolarization) ([1]; 2 μM, N 3): 400.0 ± 47.4 ms | MDP (maximal diastolic potential) ([1]; 2 μM, N 3): -81.7 ± 2.4 mV | Vmax (maximum rate of depolarization) ([1]; 2 μM, N 3): 392.3 ± 23.7 V/s | APA ([1]; 5 μM, 1 Hz, N = 6): 111.0 ± 2.4 mV | APD50 ([1]; 5 μM, 1 Hz, N = 6): 121.3 ms | APD90 ([1]; 5 μM, 1 Hz, N = 6): 279.0 mS | RP ([1]; 5 μM, 1 Hz, N = 6): -86.0 ± 2.0 mV | Vmax ([1]; 5 μM, 1 Hz, N = 6): 439.3 V/s | Complete survival, animals ([2]; 1 mg/kg i.v.): 7/8 | Complete survival, percent ([2]; 1 mg/kg i.v.): 87.5% | protection from arrhythmogenic effects of ligation and reperfusion (in words) ([2]; 1 mg/kg, versus d-sotalol 3 mg/kg): protected from the arrhythmogenic effects of ligation and reperfusion of the coronary artery to a higher degree than a dose of 3 mg/kg of d-sotalol | ES (extrasystole) ([2]; occlusion, 1 mg/kg i.v.): 36.6 ± 84.1 | VF (ventricular fibrillation), animals ([2]; occlusion, 1 mg/kg i.v.): 1/8 | VF (ventricular fibrillation), percent ([2]; occlusion, 1 mg/kg i.v.): 12.5% | VT (ventricular tachycardia), animals ([2]; occlusion, 1 mg/kg i.v.): 1/8 | VT (ventricular tachycardia), percent ([2]; occlusion, 1 mg/kg i.v.): 12.5% | VF (ventricular fibrillation), animals ([2]; reperfusion, 1 mg/kg i.v.): 0/7 | VF (ventricular fibrillation), percent ([2]; reperfusion, 1 mg/kg i.v.): 0% | heart rate (in words) ([3]; 25 mg/kg, first 15 minutes of myocardial infarction): statistically unchanged | antiarrhythmic effect (in words) ([3]; oral administration): showed an antiarrhythmic effect even after oral administration | Survival 15 minutes ([3]; p.o. 25 mg/kg): 8/50 | Survival 16 hours ([3]; p.o. 25 mg/kg): 7/44 | Occurrence of arrhythmias: Brady [3, 4]: 2/12 | Occurrence of arrhythmias: Free (no arrhythmia was observed) [3, 4]: 3/19 | Occurrence of arrhythmias: Other [3, 4]: 9/56 | Occurrence of arrhythmias: VF [3, 4]: 10/63 | Occurrence of arrhythmias: VT [3, 4]: 12/75 | Arrhythmia Score ([3]; p.o. 25 mg/kg, score system from 0 to 6): 3.94 ± 0.64
